“Also recorded” adds a separate entry of the source.
Tests used:
other TEC kinases = details: literature; cited from earlier work
ITK = biological target: T1, ITK (Homo sapiens, UniProt Q08881); assay: Jump dilution assay; assay type: binding; design: purchased Invitrogen
T1 sequence (Q08881 1-620): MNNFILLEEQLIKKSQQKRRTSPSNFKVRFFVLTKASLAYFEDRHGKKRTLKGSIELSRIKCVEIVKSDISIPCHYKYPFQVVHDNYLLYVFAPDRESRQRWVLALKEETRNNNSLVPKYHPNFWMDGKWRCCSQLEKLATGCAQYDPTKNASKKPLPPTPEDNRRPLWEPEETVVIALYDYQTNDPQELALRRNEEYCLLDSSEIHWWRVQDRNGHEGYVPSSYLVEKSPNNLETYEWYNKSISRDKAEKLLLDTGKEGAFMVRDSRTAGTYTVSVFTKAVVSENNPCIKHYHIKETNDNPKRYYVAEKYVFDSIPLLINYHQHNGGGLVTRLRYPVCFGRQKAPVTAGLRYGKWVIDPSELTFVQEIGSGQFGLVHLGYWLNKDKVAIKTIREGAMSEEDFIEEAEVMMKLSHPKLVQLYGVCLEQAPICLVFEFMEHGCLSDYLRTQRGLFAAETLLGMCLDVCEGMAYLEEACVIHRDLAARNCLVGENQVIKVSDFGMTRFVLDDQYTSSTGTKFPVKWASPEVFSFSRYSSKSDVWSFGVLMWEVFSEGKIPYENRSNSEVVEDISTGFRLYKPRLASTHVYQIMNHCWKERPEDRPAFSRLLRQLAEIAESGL
Method: The assay format is similar to the Competitive Tracer-binding Assay and relies on the reversible binding of tracer 236 to recombinant tagged human ITK. […] The mixture was then filtered through a desalting column (Thermo Scientific, Zeba Spin Desalting Column, 40K MWCO) to remove unbound inhibitor. The assay was initiated immediately after the desalting step by diluting the eluate containing the inhibited kinase complex 50-fold into a solution of anti-tag antibody (2 nM final) and excess tracer 236 (40 nM final). Dissociation of inhibitor and binding of tracer was monitored immediately after assay initiation using an EnVision plate reader (excitation 340 nm, dual emission at 665 nm and 615 nm). Reagents including GST-tagged recombinant human ITK, Kinase tracer 236, Lanthascreen Eu-Anti-GST antibody and kinase buffer A were purchased from ThermoFisher Scientific/Invitrogen. Each data point represents the mean of technical triplicates. Equation 3 was fitted to the BMS-509744 data to obtain the rate constant using GraphPad Prism from which the half-life was calculated.

SMILES	inhibition of other TEC kinases (other TEC kinases)	reversibility of ITK inhibition on dilution (ITK; dilution into competitive probe)	half-life of inhibitor-ITK complex (ITK; dilution into excess tracer 236)
C=CC(=O)N1CCC[C@@H]1Cn1c(NC(=O)c2ccc(C(F)F)s2)nc2cc(CN[C@@H](C)C(C)(C)C)ccc21 [PRN694]	significant inhibition	–	–
COc1cc(C)c(Sc2cnc(NC(=O)c3ccc(CNC(C)C(C)(C)C)cc3)s2)cc1C(=O)N1CCN(C(C)=O)CC1 (stereo not drawn) [BMS-509744, reference compound]	–	reversible; also recorded: rapid dissociation	2.6 min

— US20250213587A1, “ITK INHIBITORS FOR INCREASING TH1 CELL ACTIVITY” (Corvus Pharmaceuticals, Inc., priority 2022, published 2025)
